Data reported in US5232937A, “Derivatives of N-phenylbenzamide with anti-ulcer and anti-allergy” (Rotta Research Laboratorium SpA., priority 1989, dated 1993).
Like-named read-outs stand apart in the source and are kept apart here.

Columns and labels:
[1] = system: passive cutaneous anaphylaxis reaction; experiment: Passive cutaneous anaphylaxis (PCA) in rats, modified Goose and Blair method; assay type: in vivo, rat; conditions: for ED50: Rattus norvegicus, iv, 0.5 h, I.V., rats
Protocol: Male rats weighing approximately 400 g were treated with 10 mg/kg of grade V egg albumen dissolved in 1 ml of a physiological solution by I.M. and intraperitoneal (I.P.) routes. With one mg of Freund's complete adjuvent solution. 13 days after sensitisation, the animals were killed under […] anaesthesia, the blood was taken and the serum was kept at -70° C. after its titre of IgE specific to egg albumen had been assayed. On the basis of type, 2 intradermal injections (i.d.) of 0.1 ml of the antiserum, titrated and suitably diluted were given into the shaved backs of 200 g male rats at a time -24h.
The products under test were administered I.V. 20 minutes of the antigen. The animals were killed 30 minutes after the challenge, the skin of the back was turned inside out and the larger and smaller diameters of each blemish were measured. In practice the response of each animal was evaluated as the average of four diameters.

[2] = Toxicity (LD50 IV in mice); conditions: mouse, in vivo
[3] = system: gastric acid secretion induced by carbachol; experiment: Anti-secretive activity, gastric acid secretion stimulated with carbachol (Lai method, modified); assay type: in vivo; conditions: Rattus norvegicus, iv, 1 h; I.V.; rats; carbachol 30 mcg/kg/h; read-out: ED50, antagonistic activity towards secretion induced by carbachol
Protocol: (§1) The anti-secretive activities were determined in rats with the use of male animals weighing approximately 200 g, anaesthetised with urethane. Gastric secretion was stimulated with pentagastrin, histamine or cabachol.
(§2) After tracheotomy, cannulae were inserted in the aesophagus and the duodenum. These were perfused with a tepid solution (37° C.) which was passed through the stomach at a constant flow rate of 1 ml/minute by means of a peristaltic pump. After stabilisation for 20 minutes, the stimulant, dissolved in a physiological solution, was perfused for 120 minutes at the dose indicated in Table 1 in a volume of 0.95 ml/hour. After 60 minutes of perfusion (base stimulation) the product under test was administered intravenously (I.V.) in a bolus and the perfusion of the stimulant was continued for a further 60 minutes. The acid secretion was recorded continuously as a function of time.
(§3) The activity of the product was evaluated as a percentage reduction in the acid secreted after the administration of the product against the base acidity measured in the first 60 minutes of collection which was in the presence of the stimulant alone.

ulcer caused by stress = experiment: Cytoprotective activity, ulcer caused by stress (containment); assay type: in vivo; conditions: Rattus norvegicus, im, 5 h, read-out: ED50, cytoprotective activity, ulcer caused by stress
Protocol: (§4) 1 if the length of the necrotic area is 2 mm
(§5) 2 if the length of the necrotic area is between 2 and 4 mm
(§6) 3 if the length of the necrotic area is 4 mm
(§7) 5 if the length of the area is 4 mm with a perforated ulcer.
(§8) A lesion index is then obtained by adding the number of lesions multiplied by their respective points.
Male rats weighing approximately 150 g which had been starved for 24 hours were imprisoned in individual cylindrical cages and immersed up to the xiphoid process in cool water kept thermostatically at 19° C. The compounds were administrated intramuscularly (I.M.) 15 minutes before the start of the test.
5 hours after the start of their containment, the animals were killed, their stomachs were removed and a quantitative evaluation was then carried out as described above.

[4] = system: gastric acid secretion induced by histamine; experiment: Anti-secretive activity, gastric acid secretion stimulated with histamine (Lai method, modified); assay type: in vivo; conditions: Rattus norvegicus, iv, 1 h; I.V.; rats; histamine 2.3 mg/kg/h; read-out: ED50, antagonistic activity towards secretion induced by histamine
Protocol: as §1, §2, §3

ulcer caused by 25% NaCl = experiment: Cytoprotective activity, ulcer caused by 25% NaCl; assay type: in vivo; conditions: Rattus norvegicus, iv, 1 h, read-out: ED50, cytoprotective activity, ulcer caused by 25% NaCl
Protocol: (§9) The drugs under test were administered intravenously 15 minutes before the irritant. […] It consists of the assignment of arbitrary points according to the number and gravity of the lesions in accordance with the following criterion:
as §4, §5, §6, §7, §8

[5] = system: gastric acid secretion induced by pentagastrin; experiment: Anti-secretive activity, gastric acid secretion stimulated with pentagastrin (Lai method, modified); assay type: in vivo; conditions: Rattus norvegicus, iv, 1 h; I.V.; rats; pentagastrin 30 mcg/kg/h; read-out: ED50, antagonistic activity towards secretion induced by pentagastrin
Protocol: as §1, §2, §3

ulcer caused by ethanol = experiment: Cytoprotective activity, ulcer caused by ethanol; assay type: in vivo, rat; conditions: for ED50: Rattus norvegicus, iv, 1 h, read-out: ED50, cytoprotective activity, ulcer caused by ethanol; for protective activity (in words): ulcer models of Table 2 (ethanol, 25% NaCl, stress)
Protocol: as §9, §4, §5, §6, §7, §8

[6] = system: actively-sensitised guinea-pig lung fragments (histamine release); experiment: Anaphylaxis in vitro, histamine release from actively sensitised guinea-pig lung fragments (modified Broklehurst method); assay type: cell-based; conditions: for inhibition at 10 µg/mL / inhibition at 30 µg/mL / inhibition at 100 µg/mL / inhibition at 300 µg/mL / EC50: Cavia porcellus; for inhibition at 10 µg/mL: 10 mcg/ml; for inhibition at 10 µg/mL / inhibition at 30 µg/mL / inhibition at 100 µg/mL / inhibition at 300 µg/mL: read-out: % inhibition of anaphylactic histamine release; for inhibition at 30 µg/mL: 30 mcg/ml; for inhibition at 100 µg/mL: 100 mcg/ml; for inhibition at 300 µg/mL: 300 mcg/ml; for EC50: guinea-pig lung fragments in vitro, read-out: EC50, anaphylactic histamine release; for activity in the in vitro anaphylaxis model relative to DSCG: compared with DSCG
Protocol: Male guinea pigs weighing approximately 250 g were sensitised with […] of grade V egg albumen dissolved in 1 ml of physiological solution and administered (1 ml/kg) I.P. and subcutaneously (S.C.). After three weeks the animals were killed under ethereal anaesthesia by bleeding. The lungs were removed and immersed in Tyrode solution at 4° C. Homogeneous fragments approximately 2 mm long were cut and divided into test pieces containing approximately 400 mg of tissue and […] of Tyrode. The samples were preincubated at 37° C. for 15 minutes with the compounds under test dissolved in 0.1 of Tyrode and incubated for a further 20 minutes at 37° C. The reaction was stopped by cooling in ice.
0.8 ml of the supernatant liquid were treated with perchloric acid and centrifuged to remove the proteins. The supernatant liquid was then made alkaline with 5N NaOH, the histamine was extracted with n-butanol and, after suitable dilution with n-heptane, was extracted again in dilute HCl.
O-phthalaldehyde was added to the samples and their fluorescence was measured with a fluorimeter at 450 mu after activation at 360 mu.
The histamine concentration in the samples was obtained from a standard straight-line graph in the range 50-800 ng/ml of histamine.

[7] = I.M., rats, 15 minutes before the test
[8] = I.V., rats, 15 minutes before NaCl
[9] = I.V., rats, 15 minutes before ethanol

N#Cc1ccc(C(=O)Nc2cc(C(=O)O)cc(C(=O)O)c2)cc1 [Compound 1, N-(3,5-dicarboxy)phenyl-4-cyanobenzamide]
% inhibition of passive cutaneous anaphylaxis ([1]; 50 mg/kg I.V.): 20.0%
% inhibition of passive cutaneous anaphylaxis ([1]; 100 mg/kg I.V.): 37.2%
% inhibition of passive cutaneous anaphylaxis ([1]; 150 mg/kg I.V.): 58.2%
ED50 [1]: 128 mg/kg
LD50 ([2]; IV in mice): 2400 mg/kg
selectivity ratio ([2]; LD50 IV mice versus ED50 of pentagastrin, read-out: toxic dose relative to the antacid-secretion dose): ~50
ED50 [3]: 33 mg/kg
ED50 (ulcer caused by stress; [7]): 135 mg/kg
ED50 [4]: 47 mg/kg
ED50 (ulcer caused by 25% NaCl; [8]): 42 mg/kg
ED50 [5]: 50 mg/kg
ED50 (ulcer caused by ethanol; [9]): 45 mg/kg

O=C(O)c1cc(NC(=O)c2ccc([N+](=O)[O-])cc2)cc(C(=O)O)c1 [Compound 2, N-(3,5-dicarboxy)phenyl-4-nitrobenzamide]
ED50 [3]: 68 mg/kg
ED50 [4]: 109 mg/kg
ED50 [5]: 91 mg/kg

O=C(O)c1cc(NC(=O)c2ccc(Cl)cc2)cc(C(=O)O)c1 [Compound 3, N-(3,5-dicarboxy)phenyl-4-chlorobenzamide]
ED50 [3]: 104 mg/kg
ED50 [4]: 108 mg/kg
ED50 [5]: 115 mg/kg

Cc1ccc(C(=O)Nc2cc(C(=O)O)cc(C(=O)O)c2)cc1 [Compound 4, N-(3,5-dicarboxy)phenyl-4-methylbenzamide]
ED50 [3]: 216 mg/kg
ED50 [4]: > 250 mg/kg
ED50 [5]: 189 mg/kg

COc1ccc(C(=O)Nc2cc(C(=O)O)cc(C(=O)O)c2)cc1 [Compound 5, N-(3,5-dicarboxy)phenyl-4-methoxybenzamide]
ED50 [3]: > 250 mg/kg
ED50 [4]: 240 mg/kg
ED50 [5]: 223 mg/kg

O=C(O)c1cc(NC(=O)c2ccc([N+](=O)[O-])c(O)c2)cc(C(=O)O)c1 [Compound 6, N-(3,5-dicarboxy)phenyl-3-hydroxy-4-nitrobenzamide]
ED50 [3]: 186 mg/kg
ED50 [4]: 205 mg/kg
ED50 [5]: 210 mg/kg

O=C(O)c1cc(NC(=O)c2ccc(O)c(O)c2)cc(C(=O)O)c1 [Compound 7, N-(3,5-dicarboxy)phenyl-3,4-di-hydroxybenzamide]
ED50 [3]: 90 mg/kg
ED50 [4]: 102 mg/kg
ED50 [5]: 97 mg/kg

COc1ccc(C(=O)Nc2cc(C(=O)O)cc(C(=O)O)c2)cc1OC [Compound 8, N-(3,5-dicarboxy)phenyl-3,4-dimethoxybenzamide]
ED50 [3]: 188 mg/kg
ED50 [4]: 222 mg/kg
ED50 [5]: 208 mg/kg

COc1cc(C(=O)Nc2cc(C(=O)O)cc(C(=O)O)c2)ccc1[N+](=O)[O-] [Compound 9, N-(3,5-dicarboxy)phenyl-3-methoxy-4-nitrobenzamide]
ED50 [3]: 88 mg/kg
ED50 [4]: 100 mg/kg
ED50 [5]: 88 mg/kg

N#Cc1ccc(C(=O)Nc2ccc(-c3nn[nH]n3)cc2)cc1 [Compound 10, N-°4-(5-tetrazolyl)e-phenyl-4-cyanobenzamide]
ED50 [3]: 39 mg/kg
ED50 [4]: 45 mg/kg
ED50 [5]: 42 mg/kg

O=C(O)c1cc(NC(=O)c2ccc(-c3nn[nH]n3)cc2)cc(C(=O)O)c1 [Compound 11, N-(3,5-dicarboxy)phenyl-4-(5-tetrazolyl)-benzamide]
% inhibition of passive cutaneous anaphylaxis ([1]; 50 mg/kg I.V.): 53.3%
% inhibition of passive cutaneous anaphylaxis ([1]; 100 mg/kg I.V.): 66%
% inhibition of passive cutaneous anaphylaxis ([1]; 150 mg/kg I.V.): 74.7%
ED50 [1]: 42.6 mg/kg
ED50 [3]: 50 mg/kg
ED50 (ulcer caused by stress; [7]): 65 mg/kg
inhibition at 10 µg/mL [6]: 11.8%
inhibition at 30 µg/mL [6]: 27.2%
inhibition at 100 µg/mL [6]: 42.4%
inhibition at 300 µg/mL [6]: 53.3%
EC50 [6]: 216 µg/mL
activity in the in vitro anaphylaxis model relative to DSCG [6]: 10-15 times
ED50 [4]: 41 mg/kg
ED50 (ulcer caused by 25% NaCl; [8]): 29 mg/kg
ED50 [5]: 33 mg/kg
ED50 (ulcer caused by ethanol; [9]): 7 mg/kg

O=C(Nc1ccc(-c2nn[nH]n2)cc1)c1ccc(-c2nn[nH]n2)cc1 [Compound 12, N-°4-(5-tetrazolyl)phenyl-4-(5-tetrazolyl)-benzamide]
% inhibition of passive cutaneous anaphylaxis ([1]; 10 mg/kg I.V.): 39.0%
% inhibition of passive cutaneous anaphylaxis ([1]; 30 mg/kg I.V.): 45.3%
% inhibition of passive cutaneous anaphylaxis ([1]; 100 mg/kg I.V.): 67.6%
ED50 [1]: 30.9 mg/kg
ED50 [3]: 30 mg/kg
ED50 (ulcer caused by stress): 56 mg/kg
inhibition at 10 µg/mL [6]: 22.8%
inhibition at 30 µg/mL [6]: 28.4%
inhibition at 100 µg/mL [6]: 56.2%
inhibition at 300 µg/mL [6]: 65.4%
EC50 [6]: 93 µg/mL
activity in the in vitro anaphylaxis model relative to DSCG [6]: 10-15 times
ED50 [4]: 32 mg/kg
ED50 (ulcer caused by 25% NaCl): 12 mg/kg
ED50 [5]: 26 mg/kg
ED50 (ulcer caused by ethanol): 3 mg/kg

N#Cc1ccc(C(=O)Nc2cc(C(N)=O)cc(C(=O)O)c2)cc1 [Compound 13, N-(3-carboxy-5-carbamoyl)phenyl-4-cyanobenzamide]
ED50 [3]: 65 mg/kg
ED50 [4]: 73 mg/kg
ED50 [5]: 68 mg/kg

NC(=O)c1cc(NC(=O)c2ccc(-c3nn[nH]n3)cc2)cc(C(=O)O)c1 [Compound 14, N-(3-carboxy-5-carbamoyl)phenyl-4-(5-tetrazolyl)-benzamide]
ED50 [3]: 48 mg/kg
ED50 [4]: 48 mg/kg
ED50 [5]: 51 mg/kg

O=C(O)c1cc(=O)c2c(OCC(O)COc3cccc4oc(C(=O)O)cc(=O)c34)cccc2o1 [DSCG, Di-sodium chromoglycate, reference compound]
% inhibition of passive cutaneous anaphylaxis ([1]; 50 mg/kg I.V.): 16.0%
% inhibition of passive cutaneous anaphylaxis ([1]; 100 mg/kg I.V.): 22.1%
% inhibition of passive cutaneous anaphylaxis ([1]; 150 mg/kg I.V.): 57.5%
ED50 [1]: 153 mg/kg
dose relation of activity (in words) ([6]; 10-300 mcg/ml): poorly dose-related
inhibitory effect on the release of histamine, all doses tested ([6]; 10-300 mcg/ml): ≤ 50%
inhibition at 10 µg/mL [6]: 6.8%
inhibition at 30 µg/mL [6]: 19.7%
inhibition at 100 µg/mL [6]: 17.8%
inhibition at 300 µg/mL [6]: 41.2%
EC50 [6]: 1460 µg/mL

CN1CCN(CC(=O)N2c3ccccc3C(=O)Nc3cccnc32)CC1 [PIRENZEPINE, pirenzepine, reference compound]
ED50 (ulcer caused by stress; [7]): > 75 mg/kg
ED50 (ulcer caused by 25% NaCl; [8]): > 50 mg/kg
ED50 (ulcer caused by ethanol; [9]): > 50 mg/kg
protective activity (in words) (ulcer caused by ethanol): inactive

CN/C(=N/CCSCc1nc[nH]c1C)NC#N [[…], cimetidine, reference compound]
ED50 (ulcer caused by stress): > 75 mg/kg
ED50 (ulcer caused by 25% NaCl): > 50 mg/kg
ED50 (ulcer caused by ethanol): > 50 mg/kg
protective activity (in words) (ulcer caused by ethanol): inactive
